In US20240216352A1 (priority 2022, published 2024):
Where “and” joins values, the source holds several entries; their conditions need not be identical. Equal entries are not always repeated.

Tested on: participants with IPF
Test: Phase 2 study, IPF cohort: efficacy (ppFVC, FVC)
Format: in vivo, human
Conditions: for Efficacy versus PBO (ppFVC, FVC): Week 26, overall population with and without SoC; for Relative reduction in rate of decline in ppFVC vs PBO: Week 26, overall; for Slope difference in rate of decline in FVC, 60 mg - PBO: adjusted for age, gender, height
Procedure: A total of 278 participants with IPF were randomized and 276 participants were treated as of the final analyses data cut-off (4 Aug. 2022). Male and female participants […] with IPF and percent predicted forced vital capacity (ppFVC) […] and percent predicted DLCO (ppDLCO)≥25%; diagnosed within 7 years of screening; having a centrally-read chest HRCT obtained at screening that was consistent with UIP or probable UIP, or having a lung biopsy consistent with UIP, were eligible to enter the study. The mean baseline ppFVC for all subjects was 76.5%. In the primary IPF cohort, participants were randomized (1:1:1) to receive 30 mg or 60 mg Compound A or placebo (PBO) twice daily for 26 weeks. Participants were stratified by standard of care (SoC) IPF therapy (pirfenidone versus nintedanib versus none) and region (Japan versus Rest of World) at randomization.
The primary objective of the study was to determine the rate of change in ppFVC from baseline to Week 26. The primary objective was evaluated with a two estimand framework to handle the intercurrent event of dose reduction to 10 mg BID or matching PBO when pre-specified low BP criteria is met. The primary estimand is adopted to estimate treatment effect when dose reduction is implemented. The supplementary estimand is adopted to estimate the effect of treatment without dose reduction.
Analysis Strategy: The primary estimand was to evaluate the efficacy of Compound A at 30 mg or 60 mg twice daily, compared to PBO in IPF participants who met the enrollment criteria, with or without use of SoC. The rate of decline in ppFVC (%) from baseline to Week 26 was compared using the difference between each dose and PBO as a population level summary regardless of dose reduction or treatment discontinuation for any reason (treatment policy strategy).
Analysis Strategy: The supplementary estimand for the primary objective is to evaluate the efficacy of Compound A at 30 mg or 60 mg twice daily without dose reduction, compared to the PBO in IPF subjects who met the enrollment criteria, with or without use of SoC. The rate of decline in ppFVC (%) from baseline to Week 26 has been compared using the difference between each dose and PBO as a population level summary regardless of treatment discontinuation for any reason (treatment policy strategy). In the event of dose reduction, data collected after dose reduction will not be considered relevant to the treatment effect of interest and therefore, will be treated as missing (while-on-treatment strategy).

[1] = 60 mg BID, baseline to Week 26, No SoC, supplementary estimand
[2] = 60 mg BID, baseline to Week 26, overall, primary estimand
[3] = 60 mg BID, baseline to Week 26, overall, supplementary estimand

CCCN(C)C(=O)OCc1c(-c2ccc(O[C@H]3CCC[C@H](C(=O)O)C3)c(C)n2)nnn1C [Compound A, (1S,3S)-3-((2-methyl-6-(1-methyl-5-(((methyl(propyl)carbamoyl)-oxy)methyl)-1H-1,2,3-triazol-4-yl)pyridin-3-yl)oxy)cyclohexane-1-carboxylic acid] was tested, and the “Acute exacerbations of lung fibrosis, patients” value (30 mg BID) was 3 n, the “Efficacy versus PBO (ppFVC, FVC)” value (30 mg BID) was “did not demonstrate efficacy compared to PBO” and the “Rate of change in ppFVC over 26 weeks” value (30 mg BID, treatment policy strategy) was −2.8%. The “Rate of change in ppFVC over 26 weeks” value (30 mg BID, while-on-treatment strategy) was −3.2%, the “Acute exacerbations of lung fibrosis, patients” value (60 mg BID) was 1 n and the “Relative treatment benefit in ppFVC decline vs PBO” value (“Relative treatment benefit” for short) (60 mg BID, Week 26, No SoC, primary estimand) was 113%. For the same molecule, the “Relative treatment benefit” value (60 mg BID, Week 26, No SoC, supplementary estimand) was 123%, the “Relative treatment benefit” value (60 mg BID, Week 26, on background SoC, primary estimand) was 39% and the “Relative treatment benefit” value (60 mg BID, Week 26, on background SoC, supplementary estimand) was 44%. For the same molecule, the “Efficacy versus PBO (ppFVC, FVC)” value (60 mg BID) was “demonstrated favorable treatment responses versus PBO”, the “Relative reduction in rate of decline in ppFVC vs PBO” value (60 mg BID, primary estimand (treatment policy)) was 54% and the “Relative reduction in rate of decline in ppFVC vs PBO” value (60 mg BID, supplementary estimand (while-on-treatment)) was 62%. For the same molecule, the “Slope difference in rate of decline in ppFVC, 60 mg - PBO” value (60 mg BID, baseline to Week 26, No SoC, primary estimand) was 2.01±1.7% and 2.01%, the “Estimated rate of decline in ppFVC, slope” value (from here on “Estimated rate … slope”) [1] was 0.471 and the “Slope difference in rate of decline in ppFVC, 60 mg - PBO” value [1] was 2.55±1.73% and 2.55%. The “Estimated rate … slope” value (60 mg BID, baseline to Week 26, SoC, supplementary estimand) was −1.772, the “Slope difference in rate of decline in ppFVC, 60 mg - PBO” value (60 mg BID, baseline to Week 26, on background SoC, primary estimand) was 1.22±0.87% and 1.22% and the “Slope difference in rate of decline in ppFVC, 60 mg - PBO” value (60 mg BID, baseline to Week 26, on background SoC, supplementary estimand) was 1.41±0.89% and 1.41%. For the same molecule, the “Slope of decline in FVC, 60 mg arm” value [2] was -54.3 ± 20.76 mL, the “Slope difference in rate of decline in ppFVC, 60 mg - PBO” value (60 mg BID, baseline to Week 26, overall, primary estimand (treatment policy)) was 1.45±0.81% and 1.4% and 1.45% and the “Slope difference in rate of decline in FVC, 60 mg - PBO” value [2] was 46.9 ± 29.14 mL and 46.9 mL. The “Estimated rate … slope” value [3] was −1.1% and −1.08%, the “Slope of decline in FVC, 60 mg arm” value [3] was -47.2 ± 20.92 mL and the “Slope difference in rate of decline in ppFVC, 60 mg - PBO” value (60 mg BID, baseline to Week 26, overall, supplementary estimand (while-on-treatment)) was 1.77±0.82% and 1.8% and 1.77%. For the same molecule, the “Slope difference in rate of decline in FVC, 60 mg - PBO” value [3] was 61.4 mL, the “Posterior probability of a positive treatment difference vs placebo (Bayesian analysis)” value (60 mg BID, under both estimand strategies) was over 95% and the “Adjusted mean treatment difference in absolute change in FVC vs placebo” value (60 mg BID, week 26) was 45.5 mL.
